# Measurements published in patent US8685967B2, “Substituted triazolopyridines and analogs thereof” (Merck Sharp & Dohme Corp., priority 2009, dated 2014).
# pKi: −log10 of the molar value.
# Target: T1, Human recombinant PDE10A1 (Homo sapiens, UniProt Q9Y233)
# T1 construct: purchased BPS Bioscience, Inc
# Experiment: In Vitro PDE10 Assay (scintillation proximity assay, [3H]cAMP)
# Assay type: biochemical
# Settings: PDE10A1 0.02 nM, 10 nM [3H]cAMP, 30 minutes at room temperature; Ki by Cheng and Prusoff
# Experimental: PDE10A1 activity was measured in white opaque 384-well Opti-Plates (Perkin Elmer Life Sciences) using a scintillation proximity assay (GE Healthcare). Human recombinant PDE10A1 was purchased from BPS Bioscience, Inc. The reaction mixture contained PDE10A1 (0.02 nM), 10 nM [^3H]cAMP ([5′,8-^3H]Adenosine 3′,5′-cyclic phosphate, ammonium salt], Amersham) and various concentrations of compound in 50 mM Tris-HCl, pH 7.5, 8.3 mM MgCl2, […] and 0.2% bovine serum albumen in a total volume of 30 μl. The assay was initiated with the addition of substrate and was allowed to proceed for 30 minutes at room temperature before being stopped by the addition of 300 μg yttrium SPA PDE beads. The reaction mixtures were thoroughly mixed, and the beads were allowed to settle for 30 minutes. The plates were then counted in a TopCount scintillation counter. Under these conditions, less than 30% of the substrate was hydrolyzed in the absence of compound. Ki values were determined as described by Cheng and Prusoff (1973).
# T1 sequence (Q9Y233 1-779 isoform Q9Y233-1): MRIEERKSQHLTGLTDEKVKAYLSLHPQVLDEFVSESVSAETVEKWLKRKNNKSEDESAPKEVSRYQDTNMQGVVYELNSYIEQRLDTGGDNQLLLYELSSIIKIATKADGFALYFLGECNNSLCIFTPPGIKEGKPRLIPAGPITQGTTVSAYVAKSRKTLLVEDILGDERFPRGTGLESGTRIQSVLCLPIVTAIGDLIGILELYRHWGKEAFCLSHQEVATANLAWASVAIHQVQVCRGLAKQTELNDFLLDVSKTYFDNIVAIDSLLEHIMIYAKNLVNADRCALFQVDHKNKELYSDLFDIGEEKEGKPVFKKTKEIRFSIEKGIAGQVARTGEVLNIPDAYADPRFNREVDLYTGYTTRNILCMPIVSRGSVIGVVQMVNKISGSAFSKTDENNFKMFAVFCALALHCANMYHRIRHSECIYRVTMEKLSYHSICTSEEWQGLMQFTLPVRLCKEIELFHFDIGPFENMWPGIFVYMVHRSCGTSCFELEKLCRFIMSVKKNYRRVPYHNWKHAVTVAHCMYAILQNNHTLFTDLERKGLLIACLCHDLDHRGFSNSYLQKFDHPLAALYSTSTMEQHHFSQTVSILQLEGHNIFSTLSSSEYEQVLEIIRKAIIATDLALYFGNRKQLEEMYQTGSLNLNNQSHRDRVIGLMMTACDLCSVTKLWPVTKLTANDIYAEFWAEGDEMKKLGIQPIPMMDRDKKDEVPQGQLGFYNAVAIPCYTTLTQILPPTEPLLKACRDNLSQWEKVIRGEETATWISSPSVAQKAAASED
row,Structure (SMILES),pKi
1,CC(C)(C)c1nnc2c(C(=O)NCCc3nc4ccc(F)cc4[nH]3)cccn12 [Example 1AA],> 7.30
2,O=C(NCCc1nc2ccccc2[nH]1)c1cccn2c(C(F)(F)F)nnc12 [Example 1A],> 7.30
3,O=C(NCCc1nc2cc(Cl)ccc2[nH]1)c1cccn2c(C3CCC3)nnc12 [Example 1BBB],> 7.30
4,O=C(NCCc1nc2ccccc2[nH]1)c1cccn2c(C3CC3)nnc12 [Example 1BB],> 7.30
5,O=C(NCCc1nc2cc(Cl)ccc2[nH]1)c1cccn2c(C(F)(F)F)nnc12 [Example 1B],> 7.30
6,CC(C)c1nnc2c(C(=O)NCCc3nc4cc(Cl)c(F)cc4[nH]3)cccn12 [Example 1DDD],> 7.30
7,CCc1nnc2c(C(=O)NCCc3nc4cc(Cl)ccc4[nH]3)cccn12 [Example 1DD],> 7.30
8,COc1ccc2nc(CCNC(=O)c3cccn4c(C)nnc34)[nH]c2c1 [Example 1EE],> 8.00
9,CC(C)(C)c1nnc2c(C(=O)NCCc3nc4ccccc4[nH]3)cc(Br)cn12 [Example 1E],> 7.30
10,O=C(NCCc1nc2cc(Cl)ccc2[nH]1)c1cc(F)cn2c(C3CC3)nnc12 [Example 1FFF],> 7.30
11,Cc1nnc2c(C(=O)NCCc3nc4cc(Cl)ccc4[nH]3)cccn12 [Example 1FF],> 7.30
12,CC(C)c1nnc2c(C(=O)NCCc3nc4ccccc4[nH]3)cccn12 [Example 1GG],> 7.30
13,O=C(NCCc1nc2cc(Cl)ccc2[nH]1)c1cc(Br)cn2c(C3CC3)nnc12 [Example 1HH],> 7.30
14,O=C(NCCc1nc2ccc(F)cc2[nH]1)c1cc(Br)cn2c(C3CC3)nnc12 [Example 1II],> 7.30
15,O=C(NCCc1nc2ccccc2[nH]1)c1cc(Br)cn2c(C3CC3)nnc12 [Example 1I],> 7.30
16,O=C(NCCc1nc2cc(Cl)ccc2[nH]1)c1cccn2c(Br)nnc12 [Example 1LL],> 7.30
17,CC(C)(C)c1nnc2c(C(=O)NCCc3nc4ccccc4[nH]3)cc(F)cn12 [Example 1MM],> 7.30
18,CC(C)(C)c1nnc2c(C(=O)NCCc3nc4cc(Cl)ccc4s3)cc(Br)cn12 [Example 1M],> 8.00
19,O=C(NCCc1nc2ccccc2[nH]1)c1cc(F)cn2c(C3CC3)nnc12 [Example 1NN],> 7.30
20,CC(C)(C)c1nnc2c(C(=O)NCCc3nc4ccccc4s3)cc(Br)cn12 [Example 1N],> 8.00
21,O=C(NCCCc1nc2ccccc2[nH]1)c1cccn2c(C3CC3)nnc12 [Example 1O],> 8.00
22,CC(C)(C)c1nnc2c(C(=O)NCCCc3nc4ccccc4[nH]3)cccn12 [Example 1P],> 8.00
23,CC(C)(C)c1nnc2c(C(=O)NCCCc3nc4ccccc4[nH]3)cc(Br)cn12 [Example 1Q],> 8.00
24,O=C(NCCc1nc2cc(Cl)ccc2[nH]1)c1cccn2c(C3CC3)nnc12 [Example 1R],> 7.30
25,COc1ccc2nc(CCNC(=O)c3cccn4c(C5CCC5)nnc34)[nH]c2c1 [Example 1SS],> 8.00

row,Structure (SMILES),pKi
1,CC(C)c1nnc2c(C(=O)NCCc3nc4cc(Cl)ccc4[nH]3)cccn12 [Example 1S],> 7.30
2,O=C(NCCc1nc2ccc(F)cc2[nH]1)c1cccn2c(C3CC3)nnc12 [Example 1T],> 7.30
3,COc1ccc2nc(CCNC(=O)c3cccn4c(C5CC5)nnc34)[nH]c2c1 [Example 1UU],> 7.30
4,O=C(NCCc1nc2c(Cl)cc(C(F)(F)F)cc2[nH]1)c1cccn2c(C3CC3)nnc12 [Example 1VV],> 8.00
5,COc1ccc2nc(CCNC(=O)c3cccn4c(C(C)C)nnc34)[nH]c2c1 [Example 1XX],> 7.30
6,O=C(NCCc1nc2cc(Cl)c(F)cc2[nH]1)c1cccn2c(C3CC3)nnc12 [Example 1ZZ],> 7.30
7,CC(C)(C)c1nnc2c(C(=O)NCCc3nc4cc(Cl)ccc4[nH]3)cccn12 [Example 1Z],> 8.00
8,Cc1nc2c(C(=O)NCCc3nc4cc(Cl)ccc4[nH]3)cccn2n1 [Example 2B],> 8.00
9,O=C(NCCc1nc2ccc(F)cc2[nH]1)c1cc(Br)cn2nc(C3CC3)nc12 [Example 2D],> 7.30
10,O=C(NCCc1nc2ccccc2[nH]1)c1cc(Br)cn2nc(C3CC3)nc12 [Example 2F],> 8.00
11,O=C(NCCc1nc2cc(Cl)ccc2[nH]1)c1cccn2nc(Br)nc12 [Example 2G],> 7.30
12,CC(C)(C)c1nnc2c(C(=O)NCCc3nc4ccccc4[nH]3)cc(-c3ccncc3)cn12 [Example 4A],> 7.30
13,CC(C)(C)c1nnc2c(C(=O)NCCCc3nc4ccccc4[nH]3)cc(-c3cccc(O)c3)cn12 [Example 4D],> 8.00
14,CC(C)(C)c1nnc2c(C(=O)NCCCc3nc4ccccc4[nH]3)cc(-c3ccncc3)cn12 [Example 4E],> 7.30
15,CC(C)(C)c1nnc2c(C(=O)NCCCc3nc4ccccc4[nH]3)cc(-c3cccnc3)cn12 [Example 4F],> 7.30
16,CC(C)(C)c1nnc2c(C(=O)NCCCc3nc4ccccc4[nH]3)cc(C#CCO)cn12 [Example 5B],> 7.30
17,Cn1c(CCNC(=O)c2cccn3c(C4CC4)nnc23)nc2cc(Cl)ccc21 [Example 7A],> 7.30
18,Cn1c(CCNC(=O)c2cccn3c(C4CC4)nnc23)nc2ccccc21 [Example 7D],> 7.30
19,Cn1c(CCNC(=O)c2cccn3c(C(C)(C)C)nnc23)nc2cc(Cl)ccc21 [Example 7E],> 7.30
20,Cc1nnc2c(C(=O)NCCc3nc4cc(Cl)ccc4n3C)cccn12 [Example 7K],> 7.30
21,CCn1c(CCNC(=O)c2cccn3c(C(C)C)nnc23)nc2ccccc21 [Example 7O],> 8.00
22,Cn1c(CCCNc2cccc3ccn4c(C(C)(C)C)nnc4c23)nc2ccccc21 [Example 8B],> 7.30
23,Cn1c(CCCNc2cccc3ccn4c(C(F)(F)F)nnc4c23)nc2ccccc21 [Example 8C],> 7.30
24,Cn1c(CCNc2cccc3ccn4c(C(F)(F)F)nnc4c23)nc2ccccc21 [Example 8],> 7.30
